One test addresses T1, CypA (Homo sapiens, UniProt P62937).
T1 construct: PPIA (UniProtKB Entry P62937: residues 1–165); made in house; host or cells: E. coli BL21(DE3)
Briefly: Chymotrypsin coupled prolyl-isomerase assay. To be noted: wild-type CypA; read-out: Wild-Type Cyclophilin Prolyl Isomerase Inhibition IC50 Values, CypA. It is filed as biochemical. The procedure, abridged: (§1)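 Chymotrypsin-coupled cis–trans isomerization of Suc-AAPF-AMC (5 µM) catalysed by 5 nM cyclophilin, run cold (2–3 °C) at pH 7.3 with 5 min compound preincubation.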

The target in a further test is T2, CypC (Homo sapiens, UniProt P45877).
T2 construct: PPIC (UniProtKB Entry P45877: residues 24–212); host or cells: E. coli BL21(DE3)
T2 sequence (P45877 24-212): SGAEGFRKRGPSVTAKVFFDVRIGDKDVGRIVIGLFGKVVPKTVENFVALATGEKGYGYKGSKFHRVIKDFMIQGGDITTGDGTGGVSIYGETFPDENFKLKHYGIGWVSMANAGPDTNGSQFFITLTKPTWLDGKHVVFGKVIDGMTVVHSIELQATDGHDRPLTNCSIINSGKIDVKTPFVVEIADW
Put plainly: Chymotrypsin coupled prolyl-isomerase assay. It counts as biochemical. The settings on record: wild-type CypC; read-out: Wild-Type Cyclophilin Prolyl Isomerase Inhibition IC50 Values, CypC. The procedure, abridged: as §1

The target of a further test is T3, CypE (Homo sapiens, UniProt Q9UNP9).
T3 construct: PPIE (UniProtKB Entry Q9UNP9: residues 131–301); host or cells: E. coli BL21(DE3)
T3 sequence (Q9UNP9 131-301): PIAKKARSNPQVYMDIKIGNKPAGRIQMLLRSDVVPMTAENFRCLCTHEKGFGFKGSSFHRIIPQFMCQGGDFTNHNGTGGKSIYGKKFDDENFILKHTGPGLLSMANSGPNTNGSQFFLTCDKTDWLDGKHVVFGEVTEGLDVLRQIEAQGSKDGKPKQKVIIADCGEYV
Briefly: Chymotrypsin coupled prolyl-isomerase assay. It is filed as biochemical. To be noted: wild-type CypE; read-out: Wild-Type Cyclophilin Prolyl Isomerase Inhibition IC50 Values, CypE. The procedure, abridged:
as §1

The target of another test is T4, CypG (Homo sapiens, UniProt Q13427).
T4 construct: PPIG (UniProtKB Entry Q13427: residues 1–179); His6 with thrombin site (pET28a LIC leader) (N); host or cells: E. coli BL21(DE3)
T4 sequence (Q13427 1-179): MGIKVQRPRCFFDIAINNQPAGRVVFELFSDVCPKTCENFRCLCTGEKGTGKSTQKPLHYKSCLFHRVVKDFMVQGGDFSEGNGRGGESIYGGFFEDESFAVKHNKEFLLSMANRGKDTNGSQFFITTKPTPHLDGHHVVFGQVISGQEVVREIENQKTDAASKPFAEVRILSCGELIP
Put plainly: Chymotrypsin coupled prolyl-isomerase assay. It counts as biochemical. The settings on record: wild-type CypG; read-out: Wild-Type Cyclophilin Prolyl Isomerase Inhibition IC50 Values, CypG. An outline of the steps: as §1

A further test has as its target T5, CypH (Homo sapiens, UniProt O43447).
T5 construct: PPIH (UniProtKB Entry O43447: residues 1–177); His6 with TEV site (2BT vector leader) (N); made in house; host or cells: E. coli BL21(DE3)
Put plainly: Chymotrypsin coupled prolyl-isomerase assay. It counts as biochemical. To be noted: wild-type CypH; read-out: Wild-Type Cyclophilin Prolyl Isomerase Inhibition IC50 Values, CypH. An outline of the steps:
as §1

For the next test, the target named is T6, CypB (Homo sapiens, UniProt P23284).
T6 construct: PPIB (UniProtKB Entry P23284: residues 34–216); His6 with TEV site (2BT vector leader) (N); made in house; host or cells: E. coli BL21(DE3)
T6 sequence (P23284 34-216): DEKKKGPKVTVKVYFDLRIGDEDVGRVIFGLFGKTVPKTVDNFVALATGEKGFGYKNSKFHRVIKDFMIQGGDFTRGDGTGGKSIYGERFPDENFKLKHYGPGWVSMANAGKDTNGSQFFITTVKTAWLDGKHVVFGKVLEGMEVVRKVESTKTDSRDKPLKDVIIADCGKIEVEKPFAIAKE
Briefly: biochemical. The procedure, abridged:
as §1

In another test the target is Cyp40 (Homo sapiens, UniProt Q08752). Briefly: Chymotrypsin coupled prolyl-isomerase assay. To be noted: read-out: Wild-Type Cyclophilin Prolyl Isomerase Inhibition IC50 Values, Cyp40; wild-type Cyp40. The procedure, abridged:
as §1

A further test addresses T7, NKTR (Homo sapiens, UniProt P30414).
T7 construct: NKTR (UniProtKB Entry P30414: residues 7–179); host or cells: E. coli BL21(DE3)
T7 sequence (P30414 7-179): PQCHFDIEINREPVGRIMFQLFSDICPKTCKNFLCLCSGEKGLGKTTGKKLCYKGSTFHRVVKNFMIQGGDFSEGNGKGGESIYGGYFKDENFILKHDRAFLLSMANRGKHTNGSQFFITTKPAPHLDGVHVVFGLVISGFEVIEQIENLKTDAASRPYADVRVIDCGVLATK
Briefly: Chymotrypsin coupled prolyl-isomerase assay. It counts as biochemical. The settings on record: wild-type NKTR; read-out: Wild-Type Cyclophilin Prolyl Isomerase Inhibition IC50 Values, NKTR.

Setting [1] is: wild-type CypB, read-out: Wild-Type Cyclophilin Prolyl Isomerase Inhibition IC50 Values, CypB.

Read-outs that look alike come from different tables or passages of the source. A value given as a limit tells only on which side of the number the result lay.

T1 sequence (P62937 whole entry, the tested form may be a part): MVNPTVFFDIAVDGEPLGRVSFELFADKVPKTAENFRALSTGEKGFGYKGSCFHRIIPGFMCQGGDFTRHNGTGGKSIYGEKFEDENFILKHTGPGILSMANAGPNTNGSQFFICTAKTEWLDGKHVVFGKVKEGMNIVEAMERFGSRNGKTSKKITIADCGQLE
T5 sequence (O43447 whole entry, the tested form may be a part): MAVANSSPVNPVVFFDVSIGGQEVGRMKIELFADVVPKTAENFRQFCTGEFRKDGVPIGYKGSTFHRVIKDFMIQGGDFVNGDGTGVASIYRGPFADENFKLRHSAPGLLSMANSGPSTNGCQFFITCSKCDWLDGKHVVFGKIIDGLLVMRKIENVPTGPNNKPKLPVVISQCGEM
Sequence of Cyp40 (Q08752 1-183): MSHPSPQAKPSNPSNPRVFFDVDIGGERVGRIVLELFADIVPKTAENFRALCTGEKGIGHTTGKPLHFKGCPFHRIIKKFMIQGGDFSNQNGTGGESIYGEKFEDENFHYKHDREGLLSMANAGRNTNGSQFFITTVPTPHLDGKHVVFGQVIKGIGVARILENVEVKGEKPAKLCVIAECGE

Regarding `C[N+]1=C(C=CC=CC=C2N(CCCCCC(=O)NCCNC(=O)C3CCNC(=O)C=CC(=O)N4CCCC(Cc5ccccc5)(C4)C(=O)NC(Cc4ccc(-c5ccc(C(CC(=O)O)CC(=O)O)cc5)cc4)C(=O)NCc4ccccc4CC(=O)N3)c3ccccc3C2(C)C)C(C)(C)c2ccccc21` (centres unmarked) [Compound B53-Cy5], the IC50 was 300 nM on CypA; > 2000 nM on CypC; 1100 nM at CypE; > 2000 nM on CypG; > 2000 nM at CypH; ~1500 nM on CypB (prolyl-isomerase inhibition, 5 nM cyclophilin, read-out: IC50 CypB). For the same compound, the IC50 is 1500 nM on CypB (setting [1]), > 2000 nM at Cyp40 and > 2000 nM at NKTR.
Regarding `C[N+]1=C(C=CC=CC=C2N(CCCCCC(=O)NCCNC(=O)C3CCNC(=O)C=CC(=O)N4CCCC(Cc5ccccc5)(C4)C(=O)NC(Cc4ccc(-c5ccc(CC(C(=O)O)C(=O)O)cc5)cc4)C(=O)NCc4ccccc4CC(=O)N3)c3ccccc3C2(C)C)C(C)(C)c2ccccc21` (centres unmarked) [*B52-Cy5], the IC50 at CypA, on CypC, on CypE, at CypG, at CypH and at CypB (setting [1]) was > 10000 nM throughout. Moreover, the IC50 at Cyp40 and at NKTR was > 10000 nM each time.

For the origin of these results see PMC9596378, “Discovery and molecular basis of subtype-selective cyclophilin inhibitors” (Nature Chemical Biology, 2022).
